Measured values from article PMC6056506, “Single olfactory receptors set odor detection thresholds” (Nature Communications, 2018).

Tests used:
Test in all cases: in vivo wide-field GCaMP3 calcium imaging of identified glomeruli, awake mice
TAAR3 = target: T1, TAAR3 (Mus musculus, UniProt Q5QD16); details: agonist, vapour-phase odorant concentration (flow dilution olfactometer), not aqueous, glomerular read-out
T1 construct: full-length native receptor from endogenous locus in olfactory sensory neurons; allele TAAR3-IRES-tauVenus (TAAR3-YFP); receptor itself untagged
T1 sequence (Q5QD16 1-343): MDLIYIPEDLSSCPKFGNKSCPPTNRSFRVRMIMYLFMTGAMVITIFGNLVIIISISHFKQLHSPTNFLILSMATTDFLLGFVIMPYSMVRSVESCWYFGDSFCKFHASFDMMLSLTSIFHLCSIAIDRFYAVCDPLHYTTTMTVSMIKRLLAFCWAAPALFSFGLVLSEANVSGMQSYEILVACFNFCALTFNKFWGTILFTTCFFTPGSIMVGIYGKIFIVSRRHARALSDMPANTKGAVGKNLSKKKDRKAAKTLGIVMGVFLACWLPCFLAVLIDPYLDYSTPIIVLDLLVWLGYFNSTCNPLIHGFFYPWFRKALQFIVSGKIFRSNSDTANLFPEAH

TAAR4 = target: T2, TAAR4 (Mus musculus, UniProt Q5QD15); details: agonist; vapour-phase odorant concentration (flow dilution olfactometer), not aqueous; glomerular read-out
T2 construct: full-length native receptor from endogenous locus in olfactory sensory neurons; allele TAAR4-IRES-tauCherry (TAAR4-RFP); receptor itself untagged
T2 sequence (Q5QD15 1-347): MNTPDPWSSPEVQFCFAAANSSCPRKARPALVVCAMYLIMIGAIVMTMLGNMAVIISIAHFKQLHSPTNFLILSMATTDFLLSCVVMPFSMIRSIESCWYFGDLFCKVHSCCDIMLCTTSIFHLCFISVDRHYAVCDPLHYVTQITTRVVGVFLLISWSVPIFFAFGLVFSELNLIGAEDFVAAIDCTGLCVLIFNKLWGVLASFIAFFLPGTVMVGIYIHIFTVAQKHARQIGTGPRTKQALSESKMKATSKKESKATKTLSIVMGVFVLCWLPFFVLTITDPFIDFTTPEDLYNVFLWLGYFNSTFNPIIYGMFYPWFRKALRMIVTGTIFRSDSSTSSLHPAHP

TAAR5 = target: T3, TAAR5 (Mus musculus, UniProt Q5QD14); details: agonist; vapour-phase odorant concentration (flow dilution olfactometer), not aqueous; glomerular read-out
T3 construct: full-length native receptor in olfactory sensory neurons; glomeruli identified by response profile and from separate TAAR5-RFP imaging experiments
T3 sequence (Q5QD14 1-337): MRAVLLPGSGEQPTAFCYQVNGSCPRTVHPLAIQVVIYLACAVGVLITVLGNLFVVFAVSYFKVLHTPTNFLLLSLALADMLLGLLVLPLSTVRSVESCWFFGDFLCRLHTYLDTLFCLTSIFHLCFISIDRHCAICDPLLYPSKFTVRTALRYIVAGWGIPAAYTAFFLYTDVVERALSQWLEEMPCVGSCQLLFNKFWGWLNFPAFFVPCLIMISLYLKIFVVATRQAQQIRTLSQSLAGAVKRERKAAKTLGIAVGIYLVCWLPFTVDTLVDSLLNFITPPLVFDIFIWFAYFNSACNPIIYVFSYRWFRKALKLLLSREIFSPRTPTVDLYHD

For `CC(C)CCN` [isopentylamine], which EC50 (TAAR3) is on record?
The EC50 was 0.41 nM.

What about the EC50 (TAAR4) of the same compound?
Its EC50 is 9.9 nM.

Which EC50 (TAAR3; printed CI does not contain the value) does the source give for `NCCc1ccccc1` [phenylethylamine] here?
Its EC50 is 0.19 nM.

`CN(C)C` [trimethylamine] was tested. Which EC50 (TAAR5) did it give?
Its EC50 is 31 nM.

And the EC50 (TAAR3)?
Its EC50 is 790 nM.

What about the EC50 (TAAR4) of the same compound?
The EC50 was 470 nM.
